These results are taken from patent US20160227783A1, “AGROCHEMICAL FORMULATION AID FOR MICRONUTRIENT UPTAKE IN PLANTS, PLANT HEALTH BENEFITS AND HERBICIDE PERFORMANCE” (Adjuvants Plus USA, INC., priority 2015, published 2016).

One assay deals with Velvetleaf. Kind of assay: Influence of water conditioners on the control of velvetleaf 21 DAT in the greenhouse. Particulars: velvetleaf 21 DAT greenhouse.
In assay [1] the test system is glyphosate resistant canola Nexera 1012. Briefly: Canola leaf tissue mineral composition after glyphosate with or without Composition 2. It counts as in vivo. Conditions: for % K / % N / % P / % S / Fe ppm / Mn ppm / Zn ppm: Control: glyphosate 0.45 kg/ha alone. How it is done:
(§1) A trial was conducted to evaluate the effect of early and or late application of glyphosate with Composition 2 on yield of glyphosate resistant canola. The RR canola was Nexera 1012. The trial was conducted on a silt loam soil with 40-47% sand, 30-50% silt and 10-23% clay, 1.4-2.9% organic matter, and pH of 6.4-8.2. The plot was planted to field pea and then hard red spring wheat the previous two years. Treatments were arranged in a randomized complete block design with four (4) replications each while the control (no-Composition 2) was replicated only twice. Plots were seeded with Nexera 1012 at seeding depth of about 1.2 to 2.5 cm, 10° C. soil temperature and plant population of approximately 110-115 seeds m2. Plants were fertilized with 87-31-9-22 N—P—K—S pounds per acre via spreading urea and potash and putting phosphorus (Alpine and 11-52-0) and sulfur through the drill. In-crop application of glyphosate at a rate of 0.45 kg ha-1 (180 g/ac) with Composition 2 at 1 L/ac was applied at 3-4 leaf stage (Early application), 6 leaf stage (Normal application), after 10 leaf stage (late) and at both 3-4 leaf and after 10 leaf stages (Early/late application). The control treatments were sprayed with glyphosate alone. Each treatment was replicated four (4) times except the control treatment which had only two (2) replications.
(§2) Plant leaf tissues were collected at one and two weeks after spraying within each treatment to determine the mineral compositions. At physiological maturity with 70% of the seeds on the main raceme turned black, plants were swathed and allowed to cure for three weeks before being combined. Prior to swathing, fifty randomly selected plants were used for seed yield and yield components analysis. Data on number of fruits/plant, percent seed oil and seed protein were collected and analysed. An area of […] of swath for each plot was combined and used for yield (bu/ac) determination. Seed yield (bu/ac) from combine was adjusted to 8% seed moisture content. Variables response to treatments were compared by analysis of variance (ANOVA) by using SPSS statistical software and mean values were subjected to ANOVA and significant means at F<0.05 were separated by the Duncan's multiple range test.

Assay [2] has the same test system. Kind of assay: Canola field trial: flowering, yield components, oil, protein and seed yield. Format: in vivo. How it is done:
as §1, §2

The mark [3] stands for this setting: canola leaf tissue one week after application, Control: glyphosate alone.
[4] abbreviates: canola leaf tissue one week after spraying.
[5] abbreviates: canola leaf tissue two weeks after spraying.
Where [6] appears, read: canola, Control: glyphosate 0.45 kg/ha alone.

Each structure is given as a SMILES string. Marks after values point to notes of the source that are not given here.

With `O=C(O)COc1ccc(Cl)cc1Cl` [2,4-D Acid, 2,4-D], in the assay with Velvetleaf (2,4-D Acid (Rugged) 0.1 kg a.e/ha, herbicide alone), the “2,4-D Acid (% control)” value is given as 31 g %.

In the case of `CNC.O=C(O)COc1ccc(Cl)cc1Cl` [2,4-D DMA, 2,4-D Dimethylamine], the “2,4-D DMA (% control)” value in the assay with Velvetleaf (2,4-D DMA 0.1 kg a.e./ha, herbicide alone) amounted to 29 g %.

For the compound `N.N.O=S(=O)(O)O` [AMS, Diammonium sulfate], the “2,4-D Acid (% control)” value in the assay on Velvetleaf (2,4-D Acid (Rugged) 0.1 kg a.e/ha +2% AMS) came to 73 ab %. The “2,4-D DMA (% control)” value in the assay with Velvetleaf (2,4-D DMA 0.1 kg a.e./ha +2% AMS) is on record as 58 def %.

For the compound `COc1c(Cl)ccc(Cl)c1C(=O)O.NCCOCCO` [Dicamba DGA, dicamba diglycolamine], the “Dicamba DGA (% control)” value in the assay on Velvetleaf (Dicamba DGA (Clarity) 0.034 kg a.e/ha, herbicide alone) stood at 36 g %.

Turning to `O=C(O)CNCP(=O)(O)O` [glyphosate], in assay [1] (setting [3]), the Fe reduction is reported as 22.7%, the “Mn concentration drop from the initial concentration” value is 13.4% and the “Zn concentration drop from the initial concentration” value was found to be 14.5%. Also, in assay [1] (setting [4]), the “% K” value was 4.1^a %, the “% N” value was 3.7^a %, the “% P” value was 0.3^a % and the “% S” value is 1.0^a %. In assay [1] (setting [4]), the Fe ppm was 85.1^a ppm, the Mn ppm is reported as 76.4^a ppm and the Zn ppm is 20.7^a ppm. For the same compound, in assay [1] (setting [5]), the “% K” value was 4.3^a %, the “% N” value is on record as 4.6^a %, the “% P” value is listed as 0.5^a % and the “% S” value was 1.3^a %. In addition, in assay [1] (setting [5]), the Fe ppm is 105^a ppm, the Mn ppm is reported as 83.2^a ppm and the Zn ppm was 22.6^a ppm. For the same compound, the oil content in assay [2] (canola seed, Control: glyphosate 0.45 kg/ha alone) is listed as 37.7%. Moreover, the percent protein result in assay [2] (canola seed, Control: glyphosate alone) is reported as “lowest value”. Besides, in assay [2] (setting [6]), the “Number of fruits per plant” value is listed as 78.5, the Seed yield came out at 40.9 bu/ac and the thousand seed weight was determined as 3.1 g. In addition, the Percent green counts entry in assay [2] (control (no-Composition 2) compared to Early, Normal and Early/Late treatments) is “higher”. Moreover, in assay [2] (no-Composition 2 (glyphosate alone) plots compared to Composition 2 treated plots), the Flowering entry is “delayed”.
